The subject of one series is metastatic breast cancer. Conditions: single agent, anthracycline-pretreated metastatic breast cancer ref Jones et al, 2005; cited from earlier work.
In the next series the target is 20S proteasome (Homo sapiens, UniProt P28074). The experiment in a line: 20S proteasome inhibition assay in whole blood. In kind it is in vivo, patients. Conditions: whole blood.
A short description of series [1]: Plasma pharmacokinetics of bortezomib and docetaxel given in combination. In kind it is in vivo, patients. The following applies: human, plasma, intravenous; for AUC(0-t): read-out: AUC0–t, mean (%CV); for AUC(0-inf): read-out: AUC0–∞∞, mean (%CV); for clearance: read-out: CL, mean (%CV) (converted); for Cmax: read-out: Cmax, mean (%CV).
From the text: (§1) In patients participating in pharmacokinetic analysis, blood samples were taken on day 1, cycle 1, to determine the plasma concentration time profile of docetaxel and bortezomib. Samples were collected immediately before docetaxel infusion and bortezomib injection and at prespecified intervals on day 1. Samples were also taken for bortezomib pharmacokinetic analysis on day 11 of cycle 1. Whole-blood samples were taken for pharmacodynamic analysis using 20S proteasome inhibition assay ([Lightcap et al, 2000]) immediately before and 1 h after bortezomib dosing on days 1 and 11 of cycles 1 and 2, and on days 2 and 12 of cycle 1, in a subset of patients participating in pharmacokinetic analysis.
For series [2], the system named is alpha-1 acid glycoprotein (AAG), albumin, and lipoproteins. On the set-up: method as in Aventis Pharmaceuticals Inc, 2005. The following applies: in vitro ref Aventis Pharmaceuticals Inc, 2005; cited from earlier work.
The mark [3] stands for this setting: 75 mg, docetaxel 75 mg m^−2 (n=7), day 1, with bortezomib.
Where [4] appears, read: 100 mg, docetaxel 100 mg m^−2 (n=6), day 1, with bortezomib.

“Also recorded” adds a separate entry of the source. Like-named read-outs stand apart in the source and are kept apart here.

Sequence of 20S proteasome (P28074 60-263): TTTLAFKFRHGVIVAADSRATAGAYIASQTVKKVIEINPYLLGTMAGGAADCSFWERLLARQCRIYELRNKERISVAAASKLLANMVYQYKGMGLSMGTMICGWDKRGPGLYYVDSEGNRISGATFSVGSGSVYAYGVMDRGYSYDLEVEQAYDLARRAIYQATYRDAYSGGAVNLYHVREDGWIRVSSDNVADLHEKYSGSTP
From the text for 20S proteasome: as §1

Regarding `CC(=O)O[C@H]1C(=O)[C@@]2(C)[C@H]([C@H](OC(=O)c3ccccc3)[C@]3(O)C[C@H](OC(=O)[C@H](O)[C@@H](NC(=O)c4ccccc4)c4ccccc4)C(C)=C1C3(C)C)[C@]1(OC(C)=O)CO[C@@H]1C[C@@H]2O` [paclitaxel], in the series on metastatic breast cancer, the “Median TTP” value is on record as 3.6 months and the Response rate is reported as 25%.

For orientation: Cmax means the highest concentration seen after dosing. As for `CC(=O)O[C@@]12CO[C@@H]1C[C@H](O)[C@@]1(C)C(=O)[C@H](O)C3=C(C)[C@@H](OC(=O)[C@H](O)[C@@H](NC(=O)OC(C)(C)C)c4ccccc4)C[C@@](O)([C@@H](OC(=O)c4ccccc4)[C@H]21)C3(C)C` [Docetaxel], on 20S proteasome, the “Effect of coadministered docetaxel on 20S proteasome inhibition by bortezomib” value is given as “appeared not to affect; also recorded: did not appear to affect”. The AUC(0-t) in series [1] (setting [3]) turned out to be 1700 ng·h/mL; in series [1] (setting [4]), 2550 ng·h/mL. Also, the AUC(0-inf) in series [1] (setting [3]) was determined as 1850 ng·h/mL; in series [1] (setting [4]), 2730 ng·h/mL. The values for the clearance in series [1] (setting [3]) and in series [1] (setting [4]) were 1420 mL/min and 1160 mL/min, respectively. For the same molecule, the half-life in series [1] (75 mg, docetaxel 75 mg m^−2 (n=7), day 1, with bortezomib, read-out: T½,z, mean (%CV) (converted)) was 10.4 h; in series [1] (75 mg, docetaxel 75 mg m^−2, day 1, patients with measurable plasma concentrations at 24 h post-dose (n=3), read-out: T½,z 24-h, mean (converted)), 17.6 h; in series [1] (100 mg, docetaxel 100 mg m^−2 (n=6), day 1, with bortezomib, read-out: T½,z, mean (%CV) (converted)), 15 h; in series [1] (100 mg, docetaxel 100 mg m^−2, day 1, patients with measurable plasma concentrations at 24 h post-dose (n=5), read-out: T½,z 24-h, mean (converted)), 17.4 h. Besides, the Vd in series [1] (75 mg, docetaxel 75 mg m^−2 (n=7), day 1, with bortezomib, read-out: Vss, mean (%CV)) turned out to be 180 L; in series [1] (75 mg, docetaxel 75 mg m^−2 (n=7), day 1, with bortezomib, read-out: Vz, mean (%CV)), 920 L; in series [1] (100 mg, docetaxel 100 mg m^−2 (n=6), day 1, with bortezomib, read-out: Vss, mean (%CV)), 372 L; in series [1] (100 mg, docetaxel 100 mg m^−2 (n=6), day 1, with bortezomib, read-out: Vz, mean (%CV)), 1510 L. Further, the Cmax in series [1] (docetaxel 75 mg m^−2 (n=7), day 1, with bortezomib) is 1620 ng/mL; in series [1] (docetaxel 100 mg m^−2 (n=6), day 1, with bortezomib), 2520 ng/mL. For the same molecule, the Plasma protein binding result in series [2] is recorded as “extensively plasma protein-bound”. Also, in the series with metastatic breast cancer, the “Median TTP” value was 5.7 months. Besides, the Response rate in the series with metastatic breast cancer is listed as 32%.

The values above are taken from paper PMC2391111 (British Journal of Cancer, 2008).
